# Laboratory results taken from US20140371262A1, “PREVENTIVE AND/OR THERAPEUTIC AGENT FOR THROMBOEMBOLISM IN THROMBOEMBOLISM PATIENT WITH SEVERE RENAL IMPAIRMENT” (Daiichi Sankyo Company, Limited, priority 2011, published 2014).
# Tests used:
# NVAF patients = test: Late phase-II trial targeting NVAF patient in Japan (thromboembolic and bleeding events, 12 weeks); assay type: in vivo, human; settings: for Bleeding events, subjects with event/subjects / Incidence of bleeding events (major, clinically relevant non-major and minor bleeding in total): all subjects
# [1] = system: NVAF patient with severe renal impairment or with normal renal functions or mild renal impairment; test: Phase-III trial targeting NVAF patient with severe renal impairment; settings: for Any bleeding events (adjudicated), incidence / Any bleeding events (adjudicated), number of subjects with events / Clinically relevant non-major bleeding events, incidence / Clinically relevant non-major bleeding events, number of subjects with events / Major bleeding events, incidence / Major bleeding events, number of subjects with events: 12 weeks
# [2] = system: patients with moderate to-high-risk atrial fibrillation; test: ENGAGE-AF TIMI-48 phase 3 study of edoxaban versus warfarin in atrial fibrillation
# [3] = 60 mg×1/day, 12 weeks, CLCR < 30 mL/min
# [4] = each edoxaban group (30, 45, 60 mg) vs warfarin group
# [5] = Normal/MiRI (CLCR 50 mL/min or higher), high-dose 60 mg once a day
# [6] = Normal/MiRI (CLCR 50 mL/min or higher), low-dose 30 mg once a day
# [7] = SRI (CLCR 15 to <30 mL/min), edoxaban 15 mg once a day
# [8] = any of the treatment groups (SRI 15 mg, Normal/MiRI 30 mg, 60 mg)
# [9] = high-dose edoxaban (60 mg once daily, halved per criteria)
# [10] = low-dose edoxaban (30 mg once daily, halved per criteria)
# [11] = subgroup whose CLCR had become <30 mL/min during the trial, edoxaban 15 mg (N = 349), warfarin dose adjusted (N = 367)
smiles,measurement,setting,value
"CN1CCc2nc(C(=O)N[C@@H]3C[C@@H](C(=O)N(C)C)CC[C@@H]3NC(=O)C(=O)Nc3ccc(Cl)cn3)sc2C1 [edoxaban, N^1-(5-chloropyridin-2-yl)-N^2-((1S,2R,4S)-4-[(dimethylamino)carbonyl]-2-{[(5-methyl-4,5,6,7-tetrahydrothiazolo[5,4-c]pyridin-2-yl)carbonyl]amino}cyclohexyl)ethanediamide]","Incidence of bleeding event (major, clinically relevant non-major and minor bleeding in total)",NVAF patients; [3],100.0%
same,Incidence of major bleeding or clinically relevant non-major bleeding,NVAF patients; [3],0%
same,"Major bleeding or clinically relevant non-major bleeding, subjects with event/subjects",NVAF patients; [3],(0/1)
same,Incidence of bleeding events compared with the warfarin group,NVAF patients; [4],No statistically significant difference
same,"Incidence of major bleeding, or of major bleeding or clinically relevant non-major bleeding, compared with the warfarin group",NVAF patients; [4],not statistically significantly different
same,"Bleeding events, subjects with event/subjects","NVAF patients; edoxaban 30 mg group, 12 weeks",24/130
same,"Incidence of bleeding events (major, clinically relevant non-major and minor bleeding in total)","NVAF patients; edoxaban 30 mg group, 12 weeks",18.5%
same,"Major bleeding, incidence","NVAF patients; edoxaban 45 mg group, 12 weeks",2.2%
same,"Major bleeding, number of subjects","NVAF patients; edoxaban 45 mg group, 12 weeks",3 subjects
same,"Bleeding events, subjects with event/subjects","NVAF patients; edoxaban 45 mg group, 12 weeks",30/134
same,"Incidence of bleeding events (major, clinically relevant non-major and minor bleeding in total)","NVAF patients; edoxaban 45 mg group, 12 weeks",22.4%
same,Thromboembolic events,"NVAF patients; edoxaban 45 mg group, 12 weeks, the only thromboembolic event of the trial",one cerebral infarction
same,"Major bleeding, incidence","NVAF patients; edoxaban 60 mg group, 12 weeks",1.5%
same,"Major bleeding, number of subjects","NVAF patients; edoxaban 60 mg group, 12 weeks",2 subjects
same,"Bleeding events, subjects with event/subjects","NVAF patients; edoxaban 60 mg group, 12 weeks",36/130
same,"Incidence of bleeding events (major, clinically relevant non-major and minor bleeding in total)","NVAF patients; edoxaban 60 mg group, 12 weeks",27.7%
same,Bleeding compared to the low dose or high dose in patients with Normal/miRI,[1]; 15 mg of edoxaban for 12 weeks in patients with SRI,did not result in a marked increase in bleeding
same,"Any bleeding events (adjudicated), incidence",[1]; [5],23.8%
same,"Any bleeding events (adjudicated), number of subjects with events",[1]; [5],5
same,"Clinically relevant non-major bleeding events, incidence",[1]; [5],4.8%
same,"Clinically relevant non-major bleeding events, number of subjects with events",[1]; [5],1
same,"Major bleeding events, incidence",[1]; [5],0.0%
same,"Major bleeding events, number of subjects with events",[1]; [5],0
same,"Any bleeding events (adjudicated), incidence",[1]; [6],22.7%
same,"Any bleeding events (adjudicated), number of subjects with events",[1]; [6],5
same,"Clinically relevant non-major bleeding events, incidence",[1]; [6],0%
same,"Clinically relevant non-major bleeding events, number of subjects with events",[1]; [6],0
same,"Major bleeding events, incidence",[1]; [6],0.0%
same,"Major bleeding events, number of subjects with events",[1]; [6],0
same,Difference in the incidence of any adjudicated bleeding events,[1]; SRI 15-mg edoxaban group vs Normal/MiRI low-dose (30-mg) or high-dose (60-mg) group,No notable difference
same,"Any bleeding events (adjudicated), incidence",[1]; [7],20.0%
same,"Any bleeding events (adjudicated), number of subjects with events",[1]; [7],10
same,"Clinically relevant non-major bleeding events, incidence",[1]; [7],0%
same,"Clinically relevant non-major bleeding events, number of subjects with events",[1]; [7],0
same,"Major bleeding events, incidence",[1]; [7],0.0%
same,"Major bleeding events, number of subjects with events",[1]; [7],0
same,Relation of the serious adverse events to the study drug,[1]; all serious adverse events were reported in the SRI 15-mg group,considered unrelated to the study drug
same,Deaths,[1]; any of the treatment groups,No deaths were reported
same,Adjudicated major bleeding events,[1]; [8],No adjudicated major bleeding events occurred
same,Thromboembolic events (cerebral infarction and systemic embolism),[1]; [8],No cerebral infarction or systemic embolism occurred
same,"Efficacy, safety and composite primary endpoint comprising ACM compared with warfarin","[2]; 15 mg dose regimen of edoxaban, subgroup CLCR <30 mL/min",noninferior to warfarin
same,Prevention of stroke or systemic embolism compared with warfarin,[2]; both once-daily regimens of edoxaban,noninferior to warfarin
same,"Hazard ratio vs warfarin, death from cardiovascular causes",[2]; high-dose edoxaban,0.86
same,"Hazard ratio vs warfarin, key secondary end point",[2]; high-dose edoxaban,0.87
same,"Hazard ratio vs warfarin, major bleeding",[2]; high-dose edoxaban,0.80
same,"Hazard ratio vs warfarin, primary end point during treatment",[2]; high-dose edoxaban,0.79
same,"Hazard ratio vs warfarin, primary end point, intention-to-treat analysis",[2]; high-dose edoxaban,0.87
same,Annualized rate of death from cardiovascular causes,[2]; [9],2.74%
same,Annualized rate of major bleeding,[2]; [9],2.75%
same,Annualized rate of the primary end point (stroke or systemic embolism) during treatment,[2]; [9],1.18%
same,"Rate of the key secondary end point (composite of stroke, systemic embolism, or death from cardiovascular causes)",[2]; [9],3.85%
same,"Hazard ratio vs warfarin, death from cardiovascular causes",[2]; low-dose edoxaban,0.85
same,"Hazard ratio vs warfarin, key secondary end point",[2]; low-dose edoxaban,0.95
same,"Hazard ratio vs warfarin, major bleeding",[2]; low-dose edoxaban,0.47
same,"Hazard ratio vs warfarin, primary end point during treatment",[2]; low-dose edoxaban,1.07
same,"Hazard ratio vs warfarin, primary end point, intention-to-treat analysis",[2]; low-dose edoxaban,1.13
same,Annualized rate of death from cardiovascular causes,[2]; [10],2.71%
same,Annualized rate of major bleeding,[2]; [10],1.61%
same,Annualized rate of the primary end point (stroke or systemic embolism) during treatment,[2]; [10],1.61%
same,"Rate of the key secondary end point (composite of stroke, systemic embolism, or death from cardiovascular causes)",[2]; [10],4.23%
same,ACM (all cause mortality): # of events,[2]; [11],12
same,ACM (all cause mortality): Event Rate,[2]; [11],1.95 %/yr
same,Disabling Stroke: # of events,[2]; [11],3
same,Disabling Stroke: Event Rate,[2]; [11],0.49 %/yr
same,Fatal Bleed: # of events,[2]; [11],2
same,Fatal Bleed: Event Rate,[2]; [11],0.33 %/yr
same,Fatal SEE: # of events,[2]; [11],0
same,Fatal SEE: Event Rate,[2]; [11],0.00 %/yr
same,Fatal Stroke: # of events,[2]; [11],2
same,Fatal Stroke: Event Rate,[2]; [11],0.33 %/yr
same,"First Disabling or Fatal Stroke, Fatal SEE, LT or Fatal Bleed, or ACM: # of events",[2]; [11],19
same,"First Disabling or Fatal Stroke, Fatal SEE, LT or Fatal Bleed, or ACM: Event Rate",[2]; [11],3.10 %/yr
same,"First Stroke, SEE or TIA: # of events",[2]; [11],15
same,"First Stroke, SEE or TIA: Event Rate",[2]; [11],2.48 %/yr
same,"First Stroke, SEE, Major Bleed, or ACM: # of events",[2]; [11],39
same,"First Stroke, SEE, Major Bleed, or ACM: Event Rate",[2]; [11],6.46 %/yr
same,LT Bleed (life threatening): # of events,[2]; [11],2
same,LT Bleed (life threatening): Event Rate,[2]; [11],0.33 %/yr
